Results: patent publication US12410355B2, “Compositions and methods for carbon dioxide solidification” (CHEVRON U.S.A. INC., priority 2022, dated 2025)

Experiments:
[1] = Solubility limit (Ksp) of GBIG in NaCl brine; assay type: physicochemical; details: 25° C., 20 minutes of sonication
Method: Solubility limit Ksp at 25° C. and 20 minutes of sonication. Solubility limit strongly depends on salinity: nonlinear dependence.

[2] = GBIG·(HCO3)2(H2O)2(s) precipitation upon contacting with CO2(g); assay type: physicochemical; details: CO2 gas 0.5 psig, 30 minutes
Method: GBIG·(HCO3)2(H2O)2(s) Precipitation Upon Contacting with CO2(g)
Pour approximately 5 ml of the synthesized chemical solution into the polycarbonate reservoir. Open the CO2 gas cylinder valve and take note of the pressure. Open the delivery valve of the regulator. Increase the delivery pressure to 0.5 psig by turning the regulator knob. Open the 3-way valve connected to the bottom of the polycarbonate reservoir to initiate CO2 gas flow into the reservoir. Watch for precipitation in the liquid through the transparent polycarbonate reservoir wall for 30 minutes. For temperature dependence testing: Samples were placed in ovens at temperature of interest for 30 minutes, then used in the procedure detailed above.
Results for the precipitation test for varying salinity and glyoxal-bis(iminoguanidine) (GBIG) concentration are shown in Tables 2-4 and FIGS. 3A-3C. Table 2 and FIG. 3A show results for 1 wt % NaCl and 0.397 wt % GBIG. Table 3 and FIG. 3B show results for 0.1 wt % NaCl and 0.243 wt % GBIG. Table 4 and FIG. 3C show results for 20 wt % NaCl and 0.064 wt % GBIG.

N=C(N)NN=CC=NNC(=N)N [GBIG, glyoxal-bis(iminoguanidine)]
0.0038: GBIG Ksp ([1]; 20 wt % NaCl)
0.0143: GBIG Ksp ([1]; 0.1 wt % NaCl)
Yes: Precipitation? ([2]; 0.1 wt % NaCl and 0.243 wt % GBIG, 25° C.) | Precipitation? ([2]; 0.1 wt % NaCl and 0.243 wt % GBIG, 65° C.) | Precipitation? ([2]; 0.1 wt % NaCl and 0.243 wt % GBIG, 80° C.) | Precipitation? ([2]; 0.1 wt % NaCl and 0.243 wt % GBIG, 100° C.) | Precipitation? ([2]; 0.1 wt % NaCl and 0.243 wt % GBIG, 115° C.) | Precipitation? ([2]; 1 wt % NaCl and 0.397 wt % GBIG, 25° C.) | Precipitation? ([2]; 1 wt % NaCl and 0.397 wt % GBIG, 65° C.) | Precipitation? ([2]; 1 wt % NaCl and 0.397 wt % GBIG, 80° C.) | Precipitation? ([2]; 1 wt % NaCl and 0.397 wt % GBIG, 100° C.) | Precipitation? ([2]; 1 wt % NaCl and 0.397 wt % GBIG, 115° C.) | Precipitation? ([2]; 20 wt % NaCl and 0.064 wt % GBIG, 25° C.) | Precipitation? ([2]; 20 wt % NaCl and 0.064 wt % GBIG, 65° C.) | Precipitation? ([2]; 20 wt % NaCl and 0.064 wt % GBIG, 80° C.) | Precipitation? ([2]; 20 wt % NaCl and 0.064 wt % GBIG, 100° C.) | Precipitation? ([2]; 20 wt % NaCl and 0.064 wt % GBIG, 115° C.)
0.064 wt %: Solubility limit, GBIG (wt %) ([1]; 20 wt % NaCl)
0.0234: GBIG Ksp ([1]; 1 wt % NaCl)
0.397 wt %: Solubility limit, GBIG (wt %) ([1]; 1 wt % NaCl)
0.243 wt %: Solubility limit, GBIG (wt %) ([1]; 0.1 wt % NaCl)
